{"source": "paper PMC4427575", "about": "“Functional screening system for yeast-secreted peptides acting on G-protein coupled receptors” (AMB Express, 2015)", "test_system": "class A GPCR SST receptor", "experiment": "Effect of FLAG fusion on somatostatin (data not shown)", "details": "result in words"}
{"substance": "somatostatin with FLAG fusion: FLAG fusion of somatostatin, endogenous circular peptide agonist acting on class A GPCR SST receptor", "values": [{"measurement": "effect of the FLAG fusion", "result": "beneficial effect"}]}
